Active and inactive are the calls of the source. No cut-off for these calls is given here.
How the values were obtained:
[1] = target: T1, Pancreatic alpha-amylase (Homo sapiens) (UniProt P04746); assay: Inhibition of pancreatic alpha-amylase (unknown origin) at 5 mM using starch as substrate preincubated for 30 mins followed by substrate addition measured after 10 mins by dinitrosalicylic acid method based microplate reader analysis
T1 sequence (whole entry): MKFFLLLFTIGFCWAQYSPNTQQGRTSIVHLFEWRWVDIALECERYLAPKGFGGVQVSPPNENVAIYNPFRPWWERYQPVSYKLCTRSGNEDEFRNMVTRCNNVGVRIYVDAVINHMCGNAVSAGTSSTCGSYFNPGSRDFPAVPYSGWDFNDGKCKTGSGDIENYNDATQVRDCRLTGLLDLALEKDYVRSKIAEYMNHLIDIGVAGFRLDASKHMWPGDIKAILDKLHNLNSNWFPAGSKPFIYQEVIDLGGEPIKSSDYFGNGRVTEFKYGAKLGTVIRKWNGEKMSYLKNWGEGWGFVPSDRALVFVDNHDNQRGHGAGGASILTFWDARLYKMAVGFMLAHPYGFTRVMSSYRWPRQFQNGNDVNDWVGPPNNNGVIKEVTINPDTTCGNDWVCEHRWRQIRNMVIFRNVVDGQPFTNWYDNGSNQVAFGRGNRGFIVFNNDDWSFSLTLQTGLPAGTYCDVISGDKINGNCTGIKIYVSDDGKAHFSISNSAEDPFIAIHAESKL

[2] = target: Alpha-glucosidase MAL12 (Saccharomyces cerevisiae S288c) (UniProt P53341); assay: Inhibition of yeast alpha-glucosidase MAL12 at 5 mM using 4-nitrophenyl-alpha-D-glucopyranoside as substrate preincubated for 30 mins followed by substrate addition measured after 10 mins by microplate reader analysis
Alpha-glucosidase MAL12 = Alpha-glucosidase MAL12 (Saccharomyces cerevisiae S288c, UniProt P53341); assay: Inhibition of yeast alpha-glucosidase MAL12 using 4-nitrophenyl-alpha-D-glucopyranoside as substrate preincubated for 30 mins followed by substrate addition measured after 10 mins by microplate reader analysis
Chain of Alpha-glucosidase MAL12 (P53341 whole entry): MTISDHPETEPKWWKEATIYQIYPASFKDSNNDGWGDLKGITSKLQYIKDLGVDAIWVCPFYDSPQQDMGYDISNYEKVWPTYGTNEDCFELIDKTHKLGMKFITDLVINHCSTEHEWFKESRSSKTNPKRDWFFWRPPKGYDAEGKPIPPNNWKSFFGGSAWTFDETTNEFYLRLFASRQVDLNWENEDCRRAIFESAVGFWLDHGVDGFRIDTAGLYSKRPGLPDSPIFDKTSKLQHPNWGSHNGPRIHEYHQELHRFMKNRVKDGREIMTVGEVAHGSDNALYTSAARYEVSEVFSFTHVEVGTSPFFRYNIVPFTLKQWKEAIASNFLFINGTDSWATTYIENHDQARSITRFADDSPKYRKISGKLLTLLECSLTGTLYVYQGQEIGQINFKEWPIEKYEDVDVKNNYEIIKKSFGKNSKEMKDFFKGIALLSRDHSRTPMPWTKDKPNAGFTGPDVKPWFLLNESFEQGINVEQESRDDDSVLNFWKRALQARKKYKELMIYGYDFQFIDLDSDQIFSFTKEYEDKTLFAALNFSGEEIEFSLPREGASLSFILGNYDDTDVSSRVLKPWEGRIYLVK

Chain of Alpha-glucosidase MAL12 (Saccharomyces cerevisiae S288c) (P53341 whole entry): as above

| inhibition [1] | inhibition [2] | IC50 (Alpha-glucosidase MAL12) [µM] | Compound |
| --- | --- | --- | --- |
| inactive | Active | 591 | c1ccc(-c2ccnc3nnnn23)nc1 |
| inactive | Active | 178 | Fc1ccc(-c2ccnc3nnnn23)cc1 |
| inactive | Active | 1010 | c1csc(-c2ccnc3nnnn23)c1 |
| inactive | Active | 421 | Clc1ccc(-c2ccnc3nnnn23)cc1 |
| inactive | Active | – | c1ccc2oc(-c3ccnc4nnnn34)cc2c1 |

More lines, now with the values behind:

| Compound | inhibition [1] | inhibition [2] | IC50 (Alpha-glucosidase MAL12) [µM] |
| --- | --- | --- | --- |
| Brc1ccc(-c2ccnc3nnnn23)cc1 | inactive | Active | – |
| O=c1oc2ccccc2cc1-c1ccnc2nnnn12 | inactive | Active | 446 |
| c1ccc(-c2ccnc3nnnn23)cc1 | inactive | Active | 422 |
| O=[N+]([O-])c1ccc(-c2ccnc3nnnn23)cc1 | inactive | Active | 308 |
| Cc1ccc(-c2ccnc3nnnn23)cc1 | inactive | Active | 49.8 |
| COc1ccc(-c2ccnc3nnnn23)cc1 | inactive | Active | 85.7 |
| Oc1ccccc1-c1ccnc2nnnn12 | inactive | Active | 1740 |

From ChEMBL document CHEMBL3826904, “Ionic liquid-promoted multicomponent synthesis of fused tetrazolo[1,5-a]pyrimidines as α-glucosidase inhibitors” (Bioorg Med Chem Lett, 2016)
